Experiments:
[1] = Cyclic voltammetry of Mn(II) complexes in aqueous solution; format: physicochemical; settings: aqueous 0.15 M KCl; for ΔE (peak separation): 100 mV s^–1; for Eox (oxidation peak) / Ered (reduction peak): 100 mV s^–1 scan rate; for Eox (oxidation peak) / Ered (reduction peak) / E1/2: vs Ag/AgCl
Experimental: All solvents (VWR International, Penta) and chemicals were purchased from commercial sources (Acros Organics, Merck) and used as received. 2-(Chloromethyl)pyridine hydrochloride and 2-(chloromethyl)benzimidazole were prepared according to the previously described procedures.[31],[32] The parent ligand 15-pyN3O2 was synthesized as previously described in the literature.[28],[33] Mass spectra were collected using an LCQ Fleet mass spectrometer (Thermo Scientific, Waltham, MA) equipped with an electrospray ion source and a three-dimensional (3D) ion-trap detector in the positive/negative mode (see SI, Figures S1 and S2). ^1H and ^13C NMR spectra were obtained using a 400-MR NMR spectrometer (Varian, Palo, Alto, CA) at 25 °C. The multiplicity of the signals is indicated as follows: s, singlet; d, doublet; t, triplet; m, multiplet; and bs, broad singlet. Deuterated solvent chloroform-d (99.9% of D) was purchased from Sigma-Aldrich and used as received. The atom numbering schemes used for the interpretation of NMR data are shown in Scheme 2. The carbon and hydrogen atoms were assigned according to the spectra obtained from the two-dimensional correlation experiments ^1H–^1H gs-COSY, ^1H–^13C gs-HMQC, and ^1H–^13C gs-HMBC (see SI, Figures S3–S10). Cyclic voltammetry was performed on a CHI600C electrochemical analyzer (CH Instruments, Inc., Austin, TX). IR spectra were measured on a Jasco FT/IR-4700 spectrometer (Jasco, Easton, MD) using the ATR technique on a diamond plate in the spectral range 4000–400 cm^–1 (see SI Figure S11). A conventional electrochemical three-electrode-type cell with a glassy carbon working electrode, a platinum wire auxiliary electrode, and either Ag/Ag^+ reference electrode (0.01 M AgNO3 in 0.1 M tetrabutylammonium perchlorate (TBAP) in CH3CN) or Ag/AgCl reference electrode filled with 3 M KCl solution was used during the measurements with the scan rate of 100 mV s^–1. The measurements were performed in an argon atmosphere either in 0.1 M TBAP solution in CH3CN or in 0.15 M aqueous solution of KCl as a supporting electrolyte with a scan rate of 100 mV s^–1 and at 1.5 mM concentration of the complexes. The internal ferrocene/ferrocenium standard (E1/2 = 0.459 V vs Ag/Ag^+ electrode, ΔE = 77 mV) was employed for measurements in CH3CN.
Thus, we carried out CV experiments on an aqueous solution of the Mn(II) complexes in 0.15 M KCl. […] The cyclic voltammogram of MnL3 is similar, showing an oxidation peak at Eox = +1004 mV and a reduction peak at Ered = 782 mV (E1/2 = 893 mV vs Ag/AgCl, ΔE = 222 mV) (Figure S23). The large separation between the oxidation and reduction peaks (ΔE) is characteristic of a quasi-reversible system. The irreversibility of the Mn(II)/Mn(III) redox process is quite common due to the lack of ligand-field stabilization for the high-spin d^5 configuration of Mn(II), with a consequent large inner-sphere contribution to electron transfer.[57] Even larger separation between the oxidation and reduction peaks was observed when the complexes were measured in acetonitrile (Figures S24 and S25 in SI).

[2] = Simultaneous analysis of 17O NMR and 1H NMRD data (Solomon-Bloembergen-Morgan); format: physicochemical
Experimental: ^1H NMRD profiles on aqueous solutions of MnL2 (cMn2+ = 0.98 mM; pH = 7.22) and MnL3 (cMn2+ = 0.96 mM; pH = 7.20) were recorded at 25 and 37 °C on a SMARTracer Fast Field Cycling NMR relaxometer (Stelar; 0.00024–0.24 T, 0.01–10 MHz ^1H Larmor frequency) and a WP80 NMR electromagnet adapted to variable-field measurements (Bruker; 0.47–1.88 T, 20–80 MHz ^1H Larmor frequency). The temperature was maintained by a gas flow and monitored by a VTC91 temperature control unit based on previous calibration with a Pt resistance temperature probe.
Variable-temperature ^17O NMR measurements of aqueous solutions of MnL2 (cMnL = 3.70 mmol·kg^–1, pH = 7.03) and MnL3 (cMnL = 3.72 mmol·kg^–1, pH = 7.2) were performed on a Bruker Avance III 400 MHz spectrometer (9.4 T, 54.2 MHz) in the temperature range 5–75 °C. The temperature was calculated after calibration with ethylene glycol and […]. Acidified water (HClO4, pH = 3.3) was used as a diamagnetic reference. The ^17O transverse relaxation times (T2) were obtained by using the CPMG spin–echo technique. To eliminate susceptibility contributions to the chemical shift, the sample was in a glass sphere placed in a 10 mm NMR tube. To improve the sensitivity, ^17O-enriched water (11.10% H2^17O, Cortecnet) was added to the solution to yield approximately 1% ^17O enrichment.
The ^17O NMR and NMRD data have been analyzed according to the Solomon–Bloembergen–Morgan theory of paramagnetic relaxation.[3] The least-squares fit was performed using Visualizeur/Optimiseur running on a MATLAB 8.3.0 (R2014a) platform.
^1H NMRD profiles were recorded at 25 and 37 °C in the magnetic field range 0.01–80 MHz (Figure 6, bottom). The reduced transverse ^17O relaxation rates were simultaneously fitted with ^1H NMRD data according to the Solomon–Bloembergen–Morgan theory (equations are given in SI). The fitted parameters are summarized in Table 6 and compared to those for seven-coordinate Mn(II) complexes of L1 and 15-pyN3O2 ligands, as well as of [Mn(H2O)6]^2+.
The shape of the ^1H NMRD curves reflects typical low-molecular-weight complexes. The profiles display one dispersion between 1 and 10 MHz as has been previously described for other complexes except [Mn(H2O)6]^2+.[49],[50] The hydration number of MnL2 and MnL3 was assumed in both cases to be q = 1 for a total coordination number of CN = 7, based on the X-ray crystal structure. In aqueous solution, the chloride or the acetonitrile that coordinates to Mn(II) in the solid state will be replaced by one water molecule to complete the coordination sphere of Mn(II). As it was described by Gale et al.,[51] the ^17O T2 values can also give an estimate of hydration number, provided the 1/T2r vs temperature curve has a maximum. This approach is not applicable for MnL2 and MnL3 since both systems are in the slow exchange regime in the entire temperature range studied. The lack of a fast exchange regime prevents the fit of the scalar coupling constant, A0/ℏ, as well which was therefore fixed to 38.6 MHz.[28]

SMILES	ΔE (peak separation) [1] [mV]	Eox (oxidation peak) [1]	Ered (reduction peak) [1]	E1/2 [1] [mV]	ErH (activation energy for the rotational motion) [2] [kJ mol^–1]	kex^298 (water exchange rate constant) [2]	kex^298 (water exchange rate) [2]	ΔH^‡ (activation enthalpy for the water exchange) [2] [kJ mol^–1]	ΔS^‡ (activation entropy for the water exchange) [2]	Δ^2 (trace of the square of the transient ZFS tensor) [2]	τrH^298 (rotational correlation time) [2] [ps]	τv^298 (correlation time for modulation of ZFS) [2] [ps]
O.[Mn+2].c1ccc(CN2CCOCCOCCNCc3cccc(n3)C2)nc1 [MnL2]	144	+994 mV	+850 mV	922	15.0 ± 0.5	0.46 × 10^7 s^–1	0.46 ± 0.02 10^7 s^–1	28.7 ± 1.36	–21 ± 5 J mol^–1K^–1	164 ± 10 10^18 s^–2	35 ± 4	8 ± 1
O.[Mn+2].c1cc2nc(c1)CN(Cc1nc3ccccc3[nH]1)CCOCCOCCNC2 [MnL3]	222	+1004 mV	782 mV	893	15.0 ± 0.5	0.23 × 10^7 s^–1	0.23 ± 0.02 10^7 s^–1	28.5 ± 2.5	–27 ± 7 J mol^–1K^–1	100 ± 10 10^18 s^–2	45 ± 2	13 ± 3
